According to US9802928B2 (Merck Sharp & Dohme Corp., priority 2013, dated 2017):

How the values were obtained:
[1] = target: soluble human BACE1 catalytic domain (Homo sapiens (Human), UniProt P56817); test: BACE1 HTRF FRET Assay; type: biochemical; settings: Ki calculated from IC50 using the Cheng-Prusoff equation; QSY7-APPswe-Eu substrate, pH 5.0
Excerpt: Na^+-Acetate pH 5.0; 1% Brij-35; Glycerol; Dimethyl Sulfoxide (DMSO); Recombinant human soluble BACE1 catalytic domain (>95% pure); APP Swedish mutant peptide substrate (QSY7-APP^swe-Eu): QSY7-[…]-Europium-amide.
A homogeneous time-resolved FRET assay can be used to determine IC50 values for inhibitors of the soluble human BACE1 catalytic domain. This assay monitors the increase of 620 nm fluorescence that resulted from BACE1 cleavage of an APPswedish APP^swe mutant peptide FRET substrate (QSY7-[…]-Europium-amide). This substrate contains an N-terminal QSY7 moiety that serves as a quencher of the C-terminal Europium fluorophore (620 nm Em). In the absence of enzyme activity, 620 nm fluorescence is low in the assay and increased linearly over 3 hours in the presence of uninhibited BACE1 enzyme Inhibition of BACE1 cleavage of the QSY7-APP^swe-Eu substrate by inhibitors is manifested as a suppression of 620 nm fluorescence.
Varying concentrations of inhibitors at 3× the final desired concentration in a volume of 10 ul are preincubated with purified human BACE1 catalytic domain (3 nM in 10 μl) for 30 minutes at 30° C. in reaction buffer containing 20 mM Na-Acetate pH 5.0, 10% glycerol, 0.1% Brij-35 and 7.5% DSMO. Reactions are initiated by addition of 10 μl of 600 nM QSY7-APP^swe-Eu substrate (200 nM final) to give a final reaction volume of 30 μl in a 384 well Nunc HTRF plate. The reactions are incubated at 30° C. for 1.5 hours. The 620 nm fluorescence is then read on a Rubystar HTRF plate reader (BMG Labtechnologies) using a 50 millisecond delay followed by a 400 millisecond acquisition time window. Inhibitor IC50 values are derived from non-linear regression analysis of concentration response curves. Ki values are then calculated from IC50 values using the Cheng-Prusoff equation using a previously determined […] of 8 μM for the QSY7-APP^swe-Eu substrate at BACE1.

[2] = target: purified human autoBACE-2 (Homo sapiens (Human), UniProt Q9Y5Z0); test: BACE-2 Assay (BACE-HTRF assay); type: biochemical; settings: Ki calculated from IC50 using the Cheng-Prusoff equation; QSY7-EISEVNLDAEFC-Eu-amide substrate, pH 5.0; read-out: BACE2 Ki
Chain of purified human autoBACE-2 (Q9Y5Z0 63-473 limits assumed): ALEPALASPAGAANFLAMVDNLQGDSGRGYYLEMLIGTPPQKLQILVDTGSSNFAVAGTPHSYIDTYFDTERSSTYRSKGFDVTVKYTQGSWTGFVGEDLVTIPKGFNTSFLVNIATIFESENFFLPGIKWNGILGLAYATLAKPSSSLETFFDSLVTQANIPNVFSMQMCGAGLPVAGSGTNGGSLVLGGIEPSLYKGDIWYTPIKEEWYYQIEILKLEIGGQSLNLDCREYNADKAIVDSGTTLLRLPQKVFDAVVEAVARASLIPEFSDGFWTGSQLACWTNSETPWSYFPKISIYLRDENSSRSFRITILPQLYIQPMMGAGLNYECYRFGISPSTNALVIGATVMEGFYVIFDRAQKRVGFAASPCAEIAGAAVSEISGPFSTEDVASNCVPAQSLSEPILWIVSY
Description: Inhibitor IC50s at purified human autoBACE-2 are determined in a time-resolved endpoint proteolysis assay that measures hydrolysis of the QSY7-EISEVNLDAEFC-Eu-amide FRET peptide substrate (BACE-HTRF assay). BACE-mediated hydrolysis of this peptide results in an increase in relative fluorescence (RFU) at 620 nm after excitation with 320 nm light. Inhibitor compounds, prepared at 3× the desired final concentration in 1×BACE assay buffer (20 mM sodium acetate pH 5.0, 10% glycerol, 0.1% Brij-35) supplemented with 7.5% DMSO are pre-incubated with an equal volume of autoBACE-2 enzyme diluted in 1×BACE assay buffer (final enzyme concentration 1 nM) in black 384-well NUNC plates for 30 minutes at 30° C. The assay is initiated by addition of an equal volume of the QSY7-EISEVNLDAEFC-Eu-amide substrate (200 nM final concentration, Km=8 μM […] for autoBACE-2) prepared in 1×BACE assay buffer supplemented with 7.5% DMSO and incubated for 90 minutes at 30° C. DMSO is present at 5% final concentration in the assay. Following laser excitation of sample wells at 320 nm, the fluorescence signal at 620 nm is collected for 400 ms following a 50 μs delay on a RUBYstar HTRF plate reader (BMG Labtechnologies). Raw RFU data is normalized to maximum (1.0 nM BACE/DMSO) and minimum (no enzyme/DMSO) RFU values. IC50s are determined by nonlinear regression analysis (sigmoidal dose response, variable slope) of percent inhibition data with minimum and maximum values set to 0 and 100 percent respectively. Similar IC50s are obtained when using raw RFU data. The Ki values are calculated from the IC50 using the Cheng-Prusoff equation.

Chain of soluble human BACE1 catalytic domain (P56817 75-416): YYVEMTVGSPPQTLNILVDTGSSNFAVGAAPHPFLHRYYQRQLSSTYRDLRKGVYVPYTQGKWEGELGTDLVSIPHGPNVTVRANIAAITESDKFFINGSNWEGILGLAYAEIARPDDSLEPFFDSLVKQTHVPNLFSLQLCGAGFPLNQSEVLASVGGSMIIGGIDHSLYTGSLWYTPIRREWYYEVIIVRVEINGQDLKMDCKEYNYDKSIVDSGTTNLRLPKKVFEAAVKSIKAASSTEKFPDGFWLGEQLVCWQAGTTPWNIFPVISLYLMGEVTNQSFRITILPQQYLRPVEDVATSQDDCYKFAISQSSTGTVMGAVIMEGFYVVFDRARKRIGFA

SMILES | Ki [1] | Ki [2]
Cc1nc(C(=O)Nc2ccc(F)c([C@@]3(C)NC(=N)N(C)S(=O)(=O)C34CC4)c2)no1 [Example 1h, N-{4-fluoro-3-[(8R)-6-imino-5,8-dimethyl-4,4-dioxido-4-thia-5,7-diazaspiro[2.5]oct-8-yl]phenyl}-5-methyl-1,2,4-oxadiazole-3-carboxamide] | 31 nM | 8 nM
CN1C(=N)N[C@](C)(c2cc(NC(=O)c3cnsn3)ccc2F)C2(CC2)S1(=O)=O [Example 1d, N-{4-fluoro-3-[(8R)-6-imino-5,8-dimethyl-4,4-dioxido-4-thia-5,7-diazaspiro[2.5]oct-8-yl]phenyl}-1,2,5-thiadiazole-3-carboxamide] | 25 nM | 15 nM
CN1C(=N)N[C@](C)(c2cc(NC(=O)c3ccc(F)cn3)ccc2F)C2(CC2)S1(=O)=O [Example 1r, 5-fluoro-N-{4-fluoro-3-[(8R)-6-imino-5,8-dimethyl-4,4-dioxido-4-thia-5,7-diazaspiro[2.5]oct-8-yl]phenyl}pyridine-2-carboxamide] | 16 nM | 8 nM
